We go through eight compounds from patent US20130225578A1, “7-CYCLYLQUINAZOLINE DERIVATIVES AND METHODS OF USE THEREOF” (AMBIT BIOSCIENCES CORPORATION, priority 2010, published 2013).

Test [1] concerns distinct kinases tested excluding mutant variants, typically 359 or 386 kinases. As to the kind of experiment: Kinase panel competition binding, selectivity score. The settings on record: compound at 10 μM; fraction of kinases with inhibition of 90% or greater. The procedure: (§1) Competition binding assays used herein were developed, validated and performed as described in Fabian et al., Nature Biotechnology 2005, 23, 329-336. Kinases were produced as fusions to T7 phage (See, Fabian et al. or WO04/015142) or alternatively, the kinases were expressed in HEK-293 cells and subsequently tagged with DNA for PCR detection (See, WO08/005,310). For the binding assays, streptavidin-coated magnetic beads were treated with biotinylated affinity ligands for […] at rt to generate affinity resins. The liganded beads were blocked with excess biotin and washed with blocking buffer (SeaBlock (Pierce), 1% BSA, 0.05% Tween 20, 1 mM DTT) to remove unbound ligand and to reduce non-specific binding. Binding reactions were assembled by combining kinase, liganded affinity beads, and test compounds in 1× binding buffer (20% SeaBlock, 0.17×PBS, 0.05% Tween 20, 6 mM DTT). Test compounds were prepared as 100× stocks in DMSO and rapidly diluted into the aqueous environment. DMSO was added to control assays lacking a test compound. Primary screen interactions were performed in polypropylene 384-well plates in a final volume of 34 μL, while Kd determinations were performed in polystyrene 96-well plates in a final volume of 135 μL. The assay plates were incubated at room temperature with shaking for 1 hour, long enough for binding reactions to reach equilibrium, and the affinity beads were washed extensively with wash buffer (1×PBS, 0.05% Tween 20) to remove unbound protein. The beads were then resuspended in elution buffer (1×PBS, 0.05% Tween 20, 2 μM non-biotinylated affinity ligand) and incubated at room temperature with shaking for 30 min. The kinase concentration in the eluates was measured by quantitative PCR. Each kinase was tested individually against each compound. Kds were determined using eleven serial threefold dilutions. A selectivity score, which is a quantitative measure of selectivity of a compound against a panel of enzymes, may be calculated for a compound by dividing the number of enzymes for which a compound meets a set criteria, (for example, a binding constant of 100 nM or less), by the total number of enzymes tested.

A further test addresses T1, JAK2 (Homo sapiens, UniProt O60674).
T1 construct: made in house; host or cells: T7 phage display or HEK-293 cells (alternatives)
Kind of test: Competition binding assay, JAK2. How it is done:
as §1

A further test concerns the target T2, JAK3 (Homo sapiens, UniProt P52333).
T2 construct: made in house; host or cells: T7 phage display or HEK-293 cells (alternatives)
T2 sequence (P52333 1-1124): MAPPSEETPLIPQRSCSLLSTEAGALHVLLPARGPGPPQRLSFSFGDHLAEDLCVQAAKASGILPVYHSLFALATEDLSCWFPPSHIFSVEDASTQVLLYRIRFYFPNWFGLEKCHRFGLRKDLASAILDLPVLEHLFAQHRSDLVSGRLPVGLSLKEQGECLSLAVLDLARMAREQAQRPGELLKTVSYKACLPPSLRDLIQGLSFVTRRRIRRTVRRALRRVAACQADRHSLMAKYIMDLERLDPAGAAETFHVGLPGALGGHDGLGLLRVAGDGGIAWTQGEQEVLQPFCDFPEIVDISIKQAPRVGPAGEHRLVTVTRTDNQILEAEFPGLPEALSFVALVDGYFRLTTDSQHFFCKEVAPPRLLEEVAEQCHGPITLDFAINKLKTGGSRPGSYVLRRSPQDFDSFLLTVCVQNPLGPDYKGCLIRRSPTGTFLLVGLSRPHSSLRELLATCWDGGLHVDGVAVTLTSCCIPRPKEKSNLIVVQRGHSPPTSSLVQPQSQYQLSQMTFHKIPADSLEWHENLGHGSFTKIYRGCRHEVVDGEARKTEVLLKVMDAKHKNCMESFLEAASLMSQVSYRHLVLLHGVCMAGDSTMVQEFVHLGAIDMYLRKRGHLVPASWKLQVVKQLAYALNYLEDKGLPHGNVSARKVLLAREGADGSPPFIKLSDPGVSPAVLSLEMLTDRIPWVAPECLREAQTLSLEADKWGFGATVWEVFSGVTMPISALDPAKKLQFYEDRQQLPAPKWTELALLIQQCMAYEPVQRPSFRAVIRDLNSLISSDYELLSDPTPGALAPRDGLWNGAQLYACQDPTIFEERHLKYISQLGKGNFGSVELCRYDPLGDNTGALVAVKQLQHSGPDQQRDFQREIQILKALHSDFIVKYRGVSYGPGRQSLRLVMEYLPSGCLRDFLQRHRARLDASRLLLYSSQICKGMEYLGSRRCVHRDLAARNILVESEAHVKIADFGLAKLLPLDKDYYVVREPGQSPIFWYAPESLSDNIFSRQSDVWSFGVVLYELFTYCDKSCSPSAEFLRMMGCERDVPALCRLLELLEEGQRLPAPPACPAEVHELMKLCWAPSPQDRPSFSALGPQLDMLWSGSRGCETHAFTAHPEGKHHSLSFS
Kind of test: Competition binding assay, JAK3. The procedure:
as §1

In the next test the target is T3, TYK2 (Homo sapiens, UniProt P29597).
T3 construct: made in house; host or cells: T7 phage display or HEK-293 cells (alternatives)
T3 sequence (P29597 whole entry): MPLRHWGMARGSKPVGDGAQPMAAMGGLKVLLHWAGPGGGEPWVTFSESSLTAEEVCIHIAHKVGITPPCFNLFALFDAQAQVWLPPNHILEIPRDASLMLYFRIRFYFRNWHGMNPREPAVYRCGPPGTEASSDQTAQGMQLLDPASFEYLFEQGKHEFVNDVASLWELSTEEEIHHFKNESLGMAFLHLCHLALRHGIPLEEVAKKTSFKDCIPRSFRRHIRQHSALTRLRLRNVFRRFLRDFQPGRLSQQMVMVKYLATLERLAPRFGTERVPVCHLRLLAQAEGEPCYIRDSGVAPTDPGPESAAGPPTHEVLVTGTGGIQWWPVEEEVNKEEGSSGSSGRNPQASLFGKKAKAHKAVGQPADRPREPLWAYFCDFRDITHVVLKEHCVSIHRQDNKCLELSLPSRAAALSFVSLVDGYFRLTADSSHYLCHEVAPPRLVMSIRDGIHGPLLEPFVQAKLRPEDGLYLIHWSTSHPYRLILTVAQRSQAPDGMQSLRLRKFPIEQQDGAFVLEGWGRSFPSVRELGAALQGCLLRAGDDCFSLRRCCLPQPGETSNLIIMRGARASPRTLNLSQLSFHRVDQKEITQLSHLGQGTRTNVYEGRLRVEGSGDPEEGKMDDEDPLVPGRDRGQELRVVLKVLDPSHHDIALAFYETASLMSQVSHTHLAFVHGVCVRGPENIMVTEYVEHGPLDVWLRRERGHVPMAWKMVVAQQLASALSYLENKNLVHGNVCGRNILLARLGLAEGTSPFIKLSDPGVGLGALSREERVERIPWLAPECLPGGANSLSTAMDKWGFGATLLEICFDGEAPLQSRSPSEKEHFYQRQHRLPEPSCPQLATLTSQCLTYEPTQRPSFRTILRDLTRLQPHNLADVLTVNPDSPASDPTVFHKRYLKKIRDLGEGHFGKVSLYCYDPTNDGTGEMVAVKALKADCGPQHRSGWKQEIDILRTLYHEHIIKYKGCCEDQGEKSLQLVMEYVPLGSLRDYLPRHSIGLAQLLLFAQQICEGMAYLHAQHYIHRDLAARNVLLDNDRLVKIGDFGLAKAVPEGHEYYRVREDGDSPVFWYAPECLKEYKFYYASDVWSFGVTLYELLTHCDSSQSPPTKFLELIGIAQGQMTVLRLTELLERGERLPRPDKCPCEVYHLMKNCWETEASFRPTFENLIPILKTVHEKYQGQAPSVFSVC
Kind of test: Competition binding assay, TYK2. The procedure:
as §1

Test [2] deals with GM-CSFR/JAK2/STAT5 pathway. As to the kind of experiment: CSTF-1 cell-based reporter assay (beta-lactamase reporter, GM-CSF stimulated). The conditions noted are these: Homo sapiens; csTF-1 cells, GM-CSF 2 ng/mL, 4 hours; read-out: Cell Assay: CS TF-1 reporter assay IC50. The procedure: CSTF-1 cells are derived from the human erythroleukemia cell line that is growth dependent on GM-CSF and has an intact GM-CSFR/JAK2/STAT5 pathway. The cell line contains stably integrated beta-lactamase reporter gene under the control of the […] (irf 1) response element recognized by the activated transcription factor STAT5. csTF-1 cells (Invitrogen K1219) were washed with assay media (97% OPTIMEM/0.5% dialyzed FBS/0.1 mM NEAA/1 mM Na pyr/P/S) and seeded in the same media at 5×10^5 cell/mL in T150 flask. After 16 hour incubation, cells were seeded at 2×10^5 cell/well in 50 jtl volume, into Costar, clear bottom, 96-well assay plates. Serial dilutions of compounds were added to the plates with final DMSO concentration at 0.5% and GM-CSF at 2 ng/mL and the plates were then incubated at 30° C. and 5% CO2 for 4 hours. The plates were brought to room temperature before adding Substrate Mixture according to manufacturer's protocol (Invitrogen, Catalog #K1085). The assay plates containing the substrate mixture were incubated in the dark at room temperature for 2 hours. Blue and green fluorescence was measured with excitation at 409 nm and emission at 460 nm (for blue) and excitation at 409 nm and emission at 530 nm (for green) using Spectra Max Gemini EM.

T1 sequence (O60674 whole entry): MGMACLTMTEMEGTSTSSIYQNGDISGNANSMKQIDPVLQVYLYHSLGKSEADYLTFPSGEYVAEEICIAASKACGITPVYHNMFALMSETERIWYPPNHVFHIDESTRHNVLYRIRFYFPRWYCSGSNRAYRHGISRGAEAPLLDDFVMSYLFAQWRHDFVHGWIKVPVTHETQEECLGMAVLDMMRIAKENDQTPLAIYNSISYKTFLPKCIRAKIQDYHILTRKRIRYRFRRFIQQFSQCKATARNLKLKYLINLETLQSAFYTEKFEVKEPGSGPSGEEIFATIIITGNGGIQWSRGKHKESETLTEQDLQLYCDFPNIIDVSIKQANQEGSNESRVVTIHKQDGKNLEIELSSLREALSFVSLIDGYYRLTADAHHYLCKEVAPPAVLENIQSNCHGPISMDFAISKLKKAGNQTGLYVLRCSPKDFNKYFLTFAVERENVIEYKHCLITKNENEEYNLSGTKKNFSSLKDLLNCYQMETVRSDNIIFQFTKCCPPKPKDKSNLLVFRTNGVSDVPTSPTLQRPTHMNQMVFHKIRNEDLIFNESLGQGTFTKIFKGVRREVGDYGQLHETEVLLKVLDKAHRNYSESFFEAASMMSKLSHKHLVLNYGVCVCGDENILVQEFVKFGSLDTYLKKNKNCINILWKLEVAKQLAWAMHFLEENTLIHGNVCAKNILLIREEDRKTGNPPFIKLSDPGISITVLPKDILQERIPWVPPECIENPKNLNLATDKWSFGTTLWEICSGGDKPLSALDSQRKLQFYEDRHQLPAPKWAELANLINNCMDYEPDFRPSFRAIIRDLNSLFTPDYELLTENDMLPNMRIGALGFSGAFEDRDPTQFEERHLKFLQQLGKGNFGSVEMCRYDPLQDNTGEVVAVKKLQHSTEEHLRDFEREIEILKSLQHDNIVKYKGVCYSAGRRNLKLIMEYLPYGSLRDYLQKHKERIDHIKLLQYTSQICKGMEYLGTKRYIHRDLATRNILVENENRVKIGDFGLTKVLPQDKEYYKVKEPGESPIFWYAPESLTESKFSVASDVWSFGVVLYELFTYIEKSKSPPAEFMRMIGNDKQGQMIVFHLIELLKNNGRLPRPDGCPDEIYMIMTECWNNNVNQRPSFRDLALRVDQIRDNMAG

`Cc1cc(Nc2nc(C(F)(F)c3ccc(F)cc3)nc3cc(N4C[C@H](O)CC4=O)ccc23)n[nH]1` [Example 7, (R)-1-(2-(difluoro(4-fluorophenyl)methyl)-4-(5-methyl-1H-pyrazol-3-ylamino)quinazolin-7-yl)-4-hydroxypyrrolidin-2-one]: in test [1], the “S-Score: S(10) at 10 μM” value is “D (D>0.5)”. The Kd was at most 1 nM on JAK2, at most 10 nM at JAK3 and at most 10 nM on TYK2. Also, the concentration for half-maximal inhibition (IC50) in test [2] was 100 to 500 nM.

With `Cc1cc(Nc2nc(C(F)(F)c3ccc(F)cc3)nc3cc(CN4CCOCC4)ccc23)n[nH]1` [Example 8, 2-(difluoro(4-fluorophenyl)methyl)-N-(5-methyl-1H-pyrazol-3-yl)-7-(morpholinomethyl)quinazolin-4-amine], the “S-Score: S(10) at 10 μM” value in test [1] is on record as “D (D>0.5)”. Further, the Kd at JAK2 was at most 1 nM; at JAK3 it was at most 10 nM; at TYK2 it was at most 10 nM. In addition, the IC50 in test [2] was at most 100 nM.

On to `Cc1cc(Nc2nc(C(F)(F)c3ccc(F)cc3)nc3cc(-c4ccccc4O)ccc23)n[nH]1` [Example 5, 2-(2-(difluoro(4-fluorophenyl)methyl)-4-(5-methyl-1H-pyrazol-3-ylamino)quinazolin-7-yl)phenol], for which the “S-Score: S(10) at 10 μM” value in test [1] is on record as “A (A≦0.3)”. In addition, the results for the Kd on JAK2, at JAK3 and at TYK2 were 1 to 10 nM, 10 to 100 nM and 10 to 100 nM, respectively. The half-maximal inhibitory concentration (IC50) in test [2] was 100 to 500 nM.

`Cc1cc(Nc2nc(C(F)(F)c3ccc(F)cc3)nc3cc(-c4cnn(C)c4)ccc23)n[nH]1` [Example 1, 2-(difluoro(4-fluorophenyl)methyl)-N-(5-methyl-1H-pyrazol-3-yl)-7-(1-methyl-1H-pyrazol-4-yl)quinazolin-4-amine]: the “S-Score: S(10) at 10 μM” value in test [1] is “A (A≦0.3)”. The Kd was at most 1 nM on JAK2, at most 10 nM on JAK3 and at most 10 nM at TYK2. Moreover, in test [2], the 50% inhibitory concentration (IC50) was at most 100 nM.

Take `Cc1cc(Nc2nc(C(F)(F)c3ccc(F)cc3)nc3cc(-c4cncnc4)ccc23)n[nH]1` [Example 2, 2-(difluoro(4-fluorophenyl)methyl)-N-(5-methyl-1H-pyrazol-3-yl)-7-(pyrimidin-5-yl)quinazolin-4-amine]: in test [1], the “S-Score: S(10) at 10 μM” value was “A (A≦0.3)”. Further, the Kd on JAK2 was at most 1 nM; at JAK3 it was at most 10 nM; on TYK2 it was at most 10 nM. Besides, the 50% inhibitory concentration (IC50) in test [2] is at most 100 nM.

`Cc1cc(Nc2nc(C(F)(F)c3ccc(F)cc3)nc3cc(-c4c(C)noc4C)ccc23)n[nH]1` [Example 6, 2-(difluoro(4-fluorophenyl)methyl)-7-(3,5-dimethylisoxazol-4-yl)-N-(5-methyl-1H-pyrazol-3-yl)quinazolin-4-amine]: in test [1], the “S-Score: S(10) at 10 μM” value was “B (0.3≦B≦0.4)”. For the same compound, the Kd is 1 to 10 nM at JAK2, at most 10 nM at JAK3 and at most 10 nM on TYK2. Besides, in test [2], the half-inhibitory concentration (IC50) lay within 100 to 500 nM.

With `Cc1cc(Nc2nc(C(F)(F)c3ccc(F)cc3)nc3cc(C4=CCOCC4)ccc23)n[nH]1` [Example 4, 2-(difluoro(4-fluorophenyl)methyl)-7-(3,6-dihydro-2H-pyran-4-yl)-N-(5-methyl-1H-pyrazol-3-yl)quinazolin-4-amine], the “S-Score: S(10) at 10 μM” value in test [1] is reported as “A (A≦0.3)”. Moreover, the results for the Kd at JAK2, on JAK3 and on TYK2 were 1 to 10 nM, at most 10 nM and at most 10 nM, respectively. Also, in test [2], the IC50 was 100 to 500 nM.

As for `Cc1cc(Nc2nc(C(F)(F)c3ccc(F)cc3)nc3cc(C4(O)COC4)ccc23)n[nH]1` [Example 3, 3-(2-(difluoro(4-fluorophenyl)methyl)-4-(5-methyl-1H-pyrazol-3-ylamino)quinazolin-7-yl)oxetan-3-ol], the “S-Score: S(10) at 10 μM” value in test [1] was “D (D>0.5)”. For the same compound, the Kd on JAK2 is at most 1 nM; at JAK3, at most 10 nM; on TYK2, at most 10 nM. In test [2], the IC50 is at most 100 nM.

As a reminder, the Kd is the constant that tells how readily two partners part at equilibrium. Higher therefore signals lower affinity. By IC50 is commonly meant the point on the concentration scale where inhibition reaches its midpoint.
